Like-named read-outs stand apart in the source and are kept apart here.
Columns and labels:
intracellular MRSA = format: cell-based, Staphylococcus aureus; details: for z-scoreMRSA+ mean: mean of 3 replicates; for z-scoreMRSA+ rep 1 / %GFP+ rep 1: replicate 1; for z-scoreMRSA+ rep 2 / %GFP+ rep 2: replicate 2; for z-scoreMRSA+ rep 3 / %GFP+ rep 3: replicate 3
Experimental: The cells were resuspended in cell culture medium without antibiotics, seeded with 10,000 cells/well into Costar flat-bottom 96-well plates (Corning, Amsterdam, the Netherlands), and were incubated overnight at 37°C/5% CO2. The next day, the bacteria were centrifuged at ≥1800 g for 15 min and resuspended in cold PBS + 5 mM ethylenediaminetetraacetic acid (EDTA). The number of CFUs present in the bacterial suspension was estimated from the optical density at 600 nm (OD600) by assuming 8x10^8 CFUs to be present in a bacterial suspension with OD600 = 1, based on prior titrations. The bacterial suspension was diluted in cell culture medium without antibiotics and added to the cells. Accuracy of the multiplicity of infection (MOI) was validated by plating serial dilutions of the MRSA inoculums on Difco TS agar plates (BD Biosciences). The calculated mean MOI throughout all experiments was 6.8 ± 4.6 (mean ± SD). Infected cells were centrifuged for 3 min at 150 g and incubated for 1 hour at 37°C/5% CO2. Next, the cells were incubated with fresh cell culture medium supplemented with 30 µg/ml gentamicin sulphate (Lonza BioWhittaker, Basel, Switzerland) for 15 min at 37°C/5% CO2 to kill residual extracellular bacteria. Infected cells were incubated overnight at 37°C/5% CO2 in cell culture medium in the presence of kinase inhibitors and 5 µg/ml gentamicin sulphate-containing medium to prevent the growth of extracellular bacteria. The solvent of the compounds, DMSO, was used at equal % v/v as a negative control. For the screen, each compound was tested in triplicate, on separate cell culture plates, resulting in triplicate values for each kinase inhibitor.
HeLa cells were harvested by trypsinization and fixed with 1% paraformaldehyde. Samples were measured on a FACSLyric with HTS extension (BD Biosciences). Flow cytometry data were analysed using FlowJo version 10 (TreeStar, Ashland, OR, USA). HeLa cells positive for GFP were gated to calculate the percentage of MRSA-infected cells. The cell count was used as surrogate readout of cell viability.
To identify potential “hit” compounds, the flow cytometry data were used to calculate standard z-scores using z = (x-μ)/σ – zneg, where x is total event count or the percent of GFP-positive cells from a single well, μ is the mean from wells of the plate, σ is the standard deviation of the plate and zneg is the mean z-score of the negative control of the plate (i.e., DMSO) ([Korbee et al., 2018]). To minimize the possibility that the presence of extreme values on a plate affected the z-scores, raw values that deviated two-fold from the negative controls were excluded when calculating plate means and standard deviations as used in the aforementioned formula. Compounds were considered a “hit” when z-scoreMRSA+ ≤ -2 and z-scoreHeLa ≥ -3 for cell count. In cases where compounds were screened twice, the average values were used to select hit compounds.

HeLa cells = assay: Compound screen by flow cytometry: HeLa cell count as surrogate readout of cell viability (z-scoreHeLa); format: cell-based, human; details: for z-scoreHeLa mean: mean of 3 replicates; for z-scoreHeLa rep 1 / cell count rep 1: replicate 1; for z-scoreHeLa rep 2 / cell count rep 2: replicate 2; for z-scoreHeLa rep 3 / cell count rep 3: replicate 3
In short: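 HeLa cells were infected with GFP-MRSA (mean MOI 6.8 ± 4.6) for 1 h, and extracellular bacteria were killed with 30 µg/ml gentamicin. Cells were then incubated overnight with kinase inhibitors in 5 µg/ml gentamicin, in triplicate against DMSO controls. Flow-cytometric cell count served as a viability surrogate, expressed as a plate z-score.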

[1] = PKIS compound screen, Yes/No call
[2] = PKIS compound screen, Yes/No call (effect without cell death)
[3] = PKIS compounds raw data, MRSA-infected HeLa cells
[4] = PKIS compounds raw data, HeLa cell count
[5] = PKIS compound screen raw data, MRSA-infected HeLa cells
[6] = PKIS compound screen, MRSA-infected HeLa cells
[7] = PKIS compound screen, Yes/No call on z-scoreMRSA+
[8] = PKIS compound screen raw data, HeLa cell count
[9] = PKIS compound screen, HeLa cell count
[10] = PKIS compound screen, Yes/No call on z-scoreHeLa
[11] = Yes/No: effect without cell death
[12] = compound screen, MRSA-infected HeLa cells
[13] = compound screen, HeLa cell count

| SMILES | effect (intracellular MRSA; [1]) | hit (intracellular MRSA; [2]) | z-scoreMRSA+ mean (intracellular MRSA; PKIS compound screen) | z-scoreMRSA+ rep 1 (intracellular MRSA; PKIS compound screen) | z-scoreMRSA+ rep 2 (intracellular MRSA; PKIS compound screen) | z-scoreMRSA+ rep 3 (intracellular MRSA; PKIS compound screen) | %GFP+ rep 1 (intracellular MRSA; [3]) [%] | %GFP+ rep 2 (intracellular MRSA; [3]) [%] | %GFP+ rep 3 (intracellular MRSA; [3]) [%] | cell death (HeLa cells; [1]) | z-scoreHeLa mean (HeLa cells; PKIS compound screen) | z-scoreHeLa rep 1 (HeLa cells; PKIS compound screen) | z-scoreHeLa rep 2 (HeLa cells; PKIS compound screen) | z-scoreHeLa rep 3 (HeLa cells; PKIS compound screen) | cell count rep 1 (HeLa cells; [4]) | cell count rep 2 (HeLa cells; [4]) | cell count rep 3 (HeLa cells; [4]) | %GFP+ rep 1 (intracellular MRSA; [5]) [%] | %GFP+ rep 2 (intracellular MRSA; [5]) [%] | %GFP+ rep 3 (intracellular MRSA; [5]) [%] | other results |
| --- | --- | --- | --- | --- | --- | --- | --- | --- | --- | --- | --- | --- | --- | --- | --- | --- | --- | --- | --- | --- | --- |
| CNC(=O)c1cc(-c2ccc(F)cc2)cc(-c2ccc(S(=O)(=O)N3CCCC3)cc2)c1N [GSK635416A] | No | No | -0.63 | -0.38 | -0.50 | -1.00 | 12.0 | 12.0 | 12.5 | No | -0.10 | -0.27 | 0.000722 | -0.04 | 4473 | 4269 | 6877 |  |  |  |  |
| COc1ccc(Nc2nccc(N3CCC(NC(=O)Nc4cccc(C(C)=O)c4)C3)n2)cc1 (centres unmarked) [GSK1379731A] | No | No | 0.32 | 0.53 | 0.41 | 0.00589 | 29.8 | 28.2 | 27.3 | No | 1.12 | 1.44 | 1.25 | 0.66 | 8450 | 7898 | 6635 | 20.9 | 21.1 | 24.3 | z-scoreMRSA+ mean (intracellular MRSA; [6]): 0.62; z-scoreMRSA+ rep 1 (intracellular MRSA; [6]): 0.57; z-scoreMRSA+ rep 2 (intracellular MRSA; [6]): 0.46; z-scoreMRSA+ rep 3 (intracellular MRSA; [6]): 0.84; effect (intracellular MRSA; [7]): No; cell count rep 1 (HeLa cells; [8]): 33897; cell count rep 2 (HeLa cells; [8]): 29436; cell count rep 3 (HeLa cells; [8]): 19502; z-scoreHeLa mean (HeLa cells; [9]): 0.48; z-scoreHeLa rep 1 (HeLa cells; [9]): 0.63; z-scoreHeLa rep 2 (HeLa cells; [9]): 0.71; z-scoreHeLa rep 3 (HeLa cells; [9]): 0.11; cell death (HeLa cells; [10]): No |
| Cc1cc(NCC(c2ccccc2)c2ccccc2)nc(NCc2ccc(C(F)(F)F)cc2)n1 [GW497681X] | No | No | -1.09 | -0.81 | -1.24 | -1.24 | 22.9 | 19.6 | 20.6 | No | -2.45 | -2.37 | -3.07 | -1.91 | 2106 | 1381 | 2577 | 20.1 | 18.7 | 19.8 | z-scoreMRSA+ mean (intracellular MRSA; [6]): -0.08; z-scoreMRSA+ rep 1 (intracellular MRSA; [6]): 0.35; z-scoreMRSA+ rep 2 (intracellular MRSA; [6]): -0.19; z-scoreMRSA+ rep 3 (intracellular MRSA; [6]): -0.39; effect (intracellular MRSA; [7]): No; cell count rep 1 (HeLa cells; [8]): 17665; cell count rep 2 (HeLa cells; [8]): 6230; cell count rep 3 (HeLa cells; [8]): 5782; z-scoreHeLa mean (HeLa cells; [9]): -2.65; z-scoreHeLa rep 1 (HeLa cells; [9]): -2.12; z-scoreHeLa rep 2 (HeLa cells; [9]): -3.27; z-scoreHeLa rep 3 (HeLa cells; [9]): -2.56; cell death (HeLa cells; [10]): No |
| CS(=O)(=O)CCNCc1nc(-c2ccc3ncnc(Nc4ccc(F)c(Cl)c4)c3c2)cs1 [GW461104A] |  |  |  |  |  |  |  |  |  |  |  |  |  |  |  |  |  | 24.3 | 20.7 | 21.4 | effect (intracellular MRSA; Yes/No call from z-scoreMRSA+): No; hit (intracellular MRSA; [11]): No; z-scoreMRSA+ mean (intracellular MRSA; [12]): -0.31; z-scoreMRSA+ rep 1 (intracellular MRSA; [12]): -0.23; z-scoreMRSA+ rep 2 (intracellular MRSA; [12]): -0.46; z-scoreMRSA+ rep 3 (intracellular MRSA; [12]): -0.24; cell count rep 1 (HeLa cells; [8]): 1413; cell count rep 2 (HeLa cells; [8]): 957; cell count rep 3 (HeLa cells; [8]): 819; cell death (HeLa cells; Yes/No call from z-scoreHeLa): No; z-scoreHeLa mean (HeLa cells; [13]): -2.50; z-scoreHeLa rep 1 (HeLa cells; [13]): -2.12; z-scoreHeLa rep 2 (HeLa cells; [13]): -2.57; z-scoreHeLa rep 3 (HeLa cells; [13]): -2.79 |
| CN(C)C(=O)O[C@@H]1CN[C@@H](C#Cc2cc3ncnc(Nc4ccc(OCc5cccc(F)c5)c(Cl)c4)c3s2)C1 [GSK238063A] |  |  |  |  |  |  | 8.6 | 9.6 | 9.8 |  |  |  |  |  | 3194 | 3723 | 4546 |  |  |  | effect (intracellular MRSA; Yes/No call from z-scoreMRSA+): No; hit (intracellular MRSA; [11]): No; z-scoreMRSA+ mean (intracellular MRSA; [12]): -1.52; z-scoreMRSA+ rep 1 (intracellular MRSA; [12]): -1.46; z-scoreMRSA+ rep 2 (intracellular MRSA; [12]): -1.30; z-scoreMRSA+ rep 3 (intracellular MRSA; [12]): -1.81; cell death (HeLa cells; Yes/No call from z-scoreHeLa): No; z-scoreHeLa mean (HeLa cells; [13]): -1.00; z-scoreHeLa rep 1 (HeLa cells; [13]): -1.43; z-scoreHeLa rep 2 (HeLa cells; [13]): -0.41; z-scoreHeLa rep 3 (HeLa cells; [13]): -1.16 |
| O=C(Nc1ccccc1F)NC1CCN(c2ccnc(Nc3ccc(F)cc3)n2)CC1 [GSK1379800A] | No | No | 0.29 | -0.13 | 0.53 | 0.47 | 26.4 | 28.8 | 29.8 | No | 0.79 | 0.80 | 0.32 | 1.24 | 7378 | 6492 | 7551 |  |  |  |  |

Source: PMC10999543, “Identification of kinase modulators as host-directed therapeutics against intracellular methicillin-resistant Staphylococcus aureus” (Frontiers in Cellular and Infection Microbiology, 2024)
